# Results: ChEMBL document CHEMBL4699486, “Fragment-based lead discovery of a novel class of small molecule antagonists of neuropeptide B/W receptor subtype 1 (GPR7)” (Bioorg Med Chem Lett, 2020)
# Target: T1, Neuropeptides B/W receptor type 1 (Homo sapiens, UniProt P48145)
# T1 sequence (P48145 whole entry): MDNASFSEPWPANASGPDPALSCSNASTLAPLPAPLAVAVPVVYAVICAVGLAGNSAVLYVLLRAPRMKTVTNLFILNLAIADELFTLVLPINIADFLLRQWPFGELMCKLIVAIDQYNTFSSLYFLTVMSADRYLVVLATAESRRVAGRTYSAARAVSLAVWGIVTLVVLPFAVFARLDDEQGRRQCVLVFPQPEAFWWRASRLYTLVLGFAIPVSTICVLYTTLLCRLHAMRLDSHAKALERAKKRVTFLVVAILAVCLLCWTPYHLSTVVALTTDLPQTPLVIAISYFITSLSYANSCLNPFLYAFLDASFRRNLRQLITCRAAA
# Assay: Antagonist activity at human NPBWR1 assessed as inhibition of agonist-induced cAMP accumulation by cAMP assay
# Assay type: functional
row,Compound,IC50
1,O=[N+]([O-])c1ccc2[nH]c(-c3ccc(N4CCCC4)cc3)nc2c1,1.81 µM
2,FC(F)(F)c1ccc2[nH]c(-c3ccc(-c4c[nH]nc4C(F)(F)F)cc3)nc2c1,1.2 µM
3,Cn1cc(-c2ccc(-c3nc4cc(C(F)(F)F)ccc4[nH]3)cc2)cn1,1.47 µM
4,CC(C)(C)c1ccc(-c2nc3cc([N+](=O)[O-])ccc3[nH]2)cc1,3.18 µM
5,CC(=O)c1ccc(-c2nc3cc([N+](=O)[O-])ccc3[nH]2)cc1,9.32 µM
6,O=[N+]([O-])c1ccc2[nH]c(-c3ccc(C(F)(F)F)cc3)nc2c1,> 31.6 µM
7,O=[N+]([O-])c1ccc2[nH]c(-c3ccc(-c4ccccc4)cc3)nc2c1,4.88 µM
8,NCc1ccc(-c2ccc(-c3nc4cc(C(F)(F)F)ccc4[nH]3)cc2)cc1,0.72 µM
9,FC(F)(F)c1ccc2[nH]c(-c3ccc(-c4ccoc4)cc3)nc2c1,1.19 µM
10,NS(=O)(=O)c1ccc(-c2nc3cc([N+](=O)[O-])ccc3[nH]2)cc1,> 31.6 µM
11,FC(F)(F)c1ccc2[nH]c(-c3ccc(-c4nnc[nH]4)cc3)nc2c1,3.08 µM
12,FC(F)(F)c1ccc2[nH]c(-c3ccccc3)nc2c1,1.2 µM
13,O=[N+]([O-])c1ccc2[nH]c(-c3cccc(N4CCCC4)c3)nc2c1,6.01 µM

# Further lines, results first:
row,IC50,Compound
1,10.7 µM,O=[N+]([O-])c1ccc2nc(-c3ccccc3Cl)[nH]c2c1
2,1.76 µM,O=[N+]([O-])c1ccc2[nH]c(-c3ccc(Cl)cc3Br)nc2c1
3,6.77 µM,O=[N+]([O-])c1ccc2[nH]c(-c3ccccc3N3CCCC3)nc2c1
4,> 31.6 µM,CC(=O)c1ccccc1-c1nc2cc([N+](=O)[O-])ccc2[nH]1
5,9.98 µM,O=[N+]([O-])c1ccc2[nH]c(-c3cccc(Cl)c3)nc2c1
6,10 µM,O=[N+]([O-])c1ccc2[nH]c(-c3ccccc3)nc2c1
7,> 31.6 µM,O=[N+]([O-])c1ccc2[nH]c(-c3ccc(Cl)c(Br)c3)nc2c1
8,0.205 µM,O=[N+]([O-])c1ccc2[nH]c(-c3c(Cl)cc(Cl)cc3I)nc2c1
9,1.54 µM,Cc1ccc(-c2nc3cc([N+](=O)[O-])ccc3[nH]2)c(C)c1
10,2.29 µM,Cc1cc(-c2nc3cc([N+](=O)[O-])ccc3[nH]2)ccc1Cl
11,1.5 µM,Cc1ccc(-c2nc3cc([N+](=O)[O-])ccc3[nH]2)cc1
12,1.02 µM,CCc1ccc(-c2nc3cc([N+](=O)[O-])ccc3[nH]2)cc1
13,1.38 µM,Cc1ccc(-c2nc3cc([N+](=O)[O-])ccc3[nH]2)cc1C
14,> 31.6 µM,O=[N+]([O-])c1ccc2nc(-c3ccc(Cl)c(Cl)c3)[nH]c2c1
15,2.49 µM,Cc1cc(Cl)ccc1-c1nc2cc([N+](=O)[O-])ccc2[nH]1
16,8.48 µM,Nc1ccc(-c2nc3cc([N+](=O)[O-])ccc3[nH]2)cc1
17,> 31.6 µM,CC(=O)c1cccc(-c2nc3cc([N+](=O)[O-])ccc3[nH]2)c1
18,2.88 µM,O=[N+]([O-])c1ccc2nc(-c3ccc(Cl)cc3Cl)[nH]c2c1
19,2.69 µM,O=[N+]([O-])c1ccc2nc(-c3ccc(Cl)cc3)[nH]c2c1
20,6.08 µM,COc1ccc(-c2nc3cc([N+](=O)[O-])ccc3[nH]2)cc1
